Legend:
Assay type in all cases: in vivo
Digitaria sanguinalis = assay: Post-emergence test experiment, Digitaria sanguinalis; conditions: 1000 g a.i./ha, 3 weeks in greenhouse, fresh weight inhibition
How it was run: (§1)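 Weed and crop seeds were sown in soil-filled pots, covered with 0.5-2 cm soil and grown in a greenhouse. Plants were sprayed at the 2-3 leaf stage, 2 weeks after sowing. Compounds were in acetone with tween-80 plus methyl oleate emulsible concentrate synergist (1.5 liters per hectare). Fresh weight inhibition was scored after 3 weeks.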

[1] = system: Monocotyledonous and dicotyledonous weed seeds and main crop seeds; assay: Post-emergence test experiment, other weeds and crops (Table 4, 1000 g a.i./ha); conditions: 3 weeks in greenhouse, fresh weight inhibition
How it was run: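 Weed and crop seeds (wheat, corn, rice, soybean, cotton, oilseed, millet, sorghum) sown in soil pots in a greenhouse and sprayed at 2-3 leaf stage, 2 weeks after sowing. Compound in acetone/tween-80 with methyl oleate concentrate (1.5 L/ha) as synergist. Effect recorded as fresh-weight growth inhibition rate.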

Echinochloa crusgalli = assay: Post-emergence test experiment, Echinochloa crusgalli; conditions: 1000 g a.i./ha, 3 weeks in greenhouse, fresh weight inhibition
How it was run: as §1

Structure (SMILES)	Activity level (growth inhibition rate), Digitaria sanguinalis (Digitaria sanguinalis)	Activity level (growth inhibition rate), Abutilon theophrasti Medic. [1]	Activity level (growth inhibition rate), Galium aparine [1]	Activity level (growth inhibition rate), Monochoria Vaginalis [1]	Activity level (growth inhibition rate), Echinochloa crusgalli (Echinochloa crusgalli)
CCCCCCCCCSC(=O)[C@@H](C)Oc1nc(F)c(Cl)c(N)c1Cl [Compound 2-176]	5 (Level 5: the growth inhibition rate is greater than 85%)	5 (Level 5: the growth inhibition rate is greater than 85%)	5 (Level 5: the growth inhibition rate is greater than 85%)	5 (Level 5: the growth inhibition rate is greater than 85%)	5 (Level 5: the growth inhibition rate is greater than 85%)
CCCCCCCCCCSC(=O)[C@@H](C)Oc1nc(F)c(Cl)c(N)c1Cl [Compound 2-196]	5 (Level 5: the growth inhibition rate is greater than 85%)	5 (Level 5: the growth inhibition rate is greater than 85%)	5 (Level 5: the growth inhibition rate is greater than 85%)	5 (Level 5: the growth inhibition rate is greater than 85%)	5 (Level 5: the growth inhibition rate is greater than 85%)
CCCCCCCCCCCSC(=O)[C@@H](C)Oc1nc(F)c(Cl)c(N)c1Cl [Compound 2-216]	5 (Level 5: the growth inhibition rate is greater than 85%)	5 (Level 5: the growth inhibition rate is greater than 85%)	5 (Level 5: the growth inhibition rate is greater than 85%)	5 (Level 5: the growth inhibition rate is greater than 85%)	5 (Level 5: the growth inhibition rate is greater than 85%)
CCCCCCCCCCCCSC(=O)[C@@H](C)Oc1nc(F)c(Cl)c(N)c1Cl [Compound 2-236]	5 (Level 5: the growth inhibition rate is greater than 85%)	5 (Level 5: the growth inhibition rate is greater than 85%)	5 (Level 5: the growth inhibition rate is greater than 85%)	5 (Level 5: the growth inhibition rate is greater than 85%)	5 (Level 5: the growth inhibition rate is greater than 85%)
CC(Oc1nc(F)c(Cl)c(N)c1Cl)C(=O)OC1CC1 (stereo not shown) [Compound 2-263]	5 (Level 5: the growth inhibition rate is greater than 85%)	5 (Level 5: the growth inhibition rate is greater than 85%)	5 (Level 5: the growth inhibition rate is greater than 85%)	5 (Level 5: the growth inhibition rate is greater than 85%)	5 (Level 5: the growth inhibition rate is greater than 85%)
CC(Oc1nc(F)c(Cl)c(N)c1Cl)C(=O)OC1CCC1 (stereo not shown) [Compound 2-264]	5 (Level 5: the growth inhibition rate is greater than 85%)	5 (Level 5: the growth inhibition rate is greater than 85%)	5 (Level 5: the growth inhibition rate is greater than 85%)	5 (Level 5: the growth inhibition rate is greater than 85%)	5 (Level 5: the growth inhibition rate is greater than 85%)
CC(Oc1nc(F)c(Cl)c(N)c1Cl)C(=O)OC1CCCC1 (stereo not shown) [Compound 2-265]	5 (Level 5: the growth inhibition rate is greater than 85%)	5 (Level 5: the growth inhibition rate is greater than 85%)	5 (Level 5: the growth inhibition rate is greater than 85%)	5 (Level 5: the growth inhibition rate is greater than 85%)	5 (Level 5: the growth inhibition rate is greater than 85%)
CC(Oc1nc(F)c(Cl)c(N)c1Cl)C(=O)SC1CCCCC1 (stereo not shown) [Compound 2-266]	5 (Level 5: the growth inhibition rate is greater than 85%)	5 (Level 5: the growth inhibition rate is greater than 85%)	5 (Level 5: the growth inhibition rate is greater than 85%)	5 (Level 5: the growth inhibition rate is greater than 85%)	5 (Level 5: the growth inhibition rate is greater than 85%)
CC(Oc1nc(F)c(Cl)c(N)c1Cl)C(=O)OCC#N (stereo not shown) [Compound 2-267]	5 (Level 5: the growth inhibition rate is greater than 85%)	5 (Level 5: the growth inhibition rate is greater than 85%)	5 (Level 5: the growth inhibition rate is greater than 85%)	5 (Level 5: the growth inhibition rate is greater than 85%)	5 (Level 5: the growth inhibition rate is greater than 85%)
CC(Oc1nc(F)c(Cl)c(N)c1Cl)C(=O)OC[N+](=O)[O-] (stereo not shown) [Compound 2-268]	5 (Level 5: the growth inhibition rate is greater than 85%)	5 (Level 5: the growth inhibition rate is greater than 85%)	5 (Level 5: the growth inhibition rate is greater than 85%)	5 (Level 5: the growth inhibition rate is greater than 85%)	5 (Level 5: the growth inhibition rate is greater than 85%)
COCCOC(=O)C(C)Oc1nc(C)c(Cl)c(N)c1Cl (stereo not shown) [Compound 2-270]	5 (Level 5: the growth inhibition rate is greater than 85%)	5 (Level 5: the growth inhibition rate is greater than 85%)	5 (Level 5: the growth inhibition rate is greater than 85%)	5 (Level 5: the growth inhibition rate is greater than 85%)	5 (Level 5: the growth inhibition rate is greater than 85%)
COCCCSC(=O)C(C)Oc1nc(F)c(Cl)c(N)c1Cl (stereo not shown) [Compound 2-272]	5 (Level 5: the growth inhibition rate is greater than 85%)	5 (Level 5: the growth inhibition rate is greater than 85%)	5 (Level 5: the growth inhibition rate is greater than 85%)	5 (Level 5: the growth inhibition rate is greater than 85%)	5 (Level 5: the growth inhibition rate is greater than 85%)
C=CCOC(=O)C(C)Oc1nc(F)c(Cl)c(N)c1Cl (stereo not shown) [Compound 2-273]	5 (Level 5: the growth inhibition rate is greater than 85%)	5 (Level 5: the growth inhibition rate is greater than 85%)	5 (Level 5: the growth inhibition rate is greater than 85%)	5 (Level 5: the growth inhibition rate is greater than 85%)	5 (Level 5: the growth inhibition rate is greater than 85%)
C#CCSC(=O)C(C)Oc1nc(F)c(Cl)c(N)c1Cl (stereo not shown) [Compound 2-274]	5 (Level 5: the growth inhibition rate is greater than 85%)	5 (Level 5: the growth inhibition rate is greater than 85%)	5 (Level 5: the growth inhibition rate is greater than 85%)	5 (Level 5: the growth inhibition rate is greater than 85%)	5 (Level 5: the growth inhibition rate is greater than 85%)
C#CCOC(=O)C(C)Oc1nc(F)c(Cl)c(N)c1Cl (stereo not shown) [Compound 2-275]	5 (Level 5: the growth inhibition rate is greater than 85%)	5 (Level 5: the growth inhibition rate is greater than 85%)	5 (Level 5: the growth inhibition rate is greater than 85%)	5 (Level 5: the growth inhibition rate is greater than 85%)	5 (Level 5: the growth inhibition rate is greater than 85%)
C[C@@H](Oc1nc(F)c(Cl)c(N)c1Cl)C(=O)OCCF [Compound 2-276]	5 (Level 5: the growth inhibition rate is greater than 85%)	5 (Level 5: the growth inhibition rate is greater than 85%)	5 (Level 5: the growth inhibition rate is greater than 85%)	5 (Level 5: the growth inhibition rate is greater than 85%)	5 (Level 5: the growth inhibition rate is greater than 85%)
C[C@@H](Oc1nc(F)c(Cl)c(N)c1Cl)C(=O)OCCCl [Compound 2-277]	5 (Level 5: the growth inhibition rate is greater than 85%)	5 (Level 5: the growth inhibition rate is greater than 85%)	5 (Level 5: the growth inhibition rate is greater than 85%)	5 (Level 5: the growth inhibition rate is greater than 85%)	5 (Level 5: the growth inhibition rate is greater than 85%)

Source: patent US12304890B2, “R-type pyridyloxycarboxylic acid, salt and ester derivative thereof, and preparation method therefor, and herbicidal composition and application thereof” (Qingdao Kingagroot Chemical Compound Co., Ltd., priority 2018, dated 2025)
